Experimental data from patent US11186566B2, “Modulator of cystic fibrosis transmembrane conductance regulator, pharmaceutical compositions, methods of treatment, and process for making the modulator” (Vertex Pharmaceuticals Incorporated, priority 2016, dated 2021).
Read-outs that look alike come from different tables or passages of the source.

Key:
[1] = target: Human Serum Albumin (HSA) (Homo sapiens (Human), UniProt P02768); test: Chromatographic determination of Human Serum Albumin (HSA) binding; type: in vitro ADME; details: ChiralPak HSA column, retention time converted to % HSA
Chain of Human Serum Albumin (HSA) (P02768 25-609): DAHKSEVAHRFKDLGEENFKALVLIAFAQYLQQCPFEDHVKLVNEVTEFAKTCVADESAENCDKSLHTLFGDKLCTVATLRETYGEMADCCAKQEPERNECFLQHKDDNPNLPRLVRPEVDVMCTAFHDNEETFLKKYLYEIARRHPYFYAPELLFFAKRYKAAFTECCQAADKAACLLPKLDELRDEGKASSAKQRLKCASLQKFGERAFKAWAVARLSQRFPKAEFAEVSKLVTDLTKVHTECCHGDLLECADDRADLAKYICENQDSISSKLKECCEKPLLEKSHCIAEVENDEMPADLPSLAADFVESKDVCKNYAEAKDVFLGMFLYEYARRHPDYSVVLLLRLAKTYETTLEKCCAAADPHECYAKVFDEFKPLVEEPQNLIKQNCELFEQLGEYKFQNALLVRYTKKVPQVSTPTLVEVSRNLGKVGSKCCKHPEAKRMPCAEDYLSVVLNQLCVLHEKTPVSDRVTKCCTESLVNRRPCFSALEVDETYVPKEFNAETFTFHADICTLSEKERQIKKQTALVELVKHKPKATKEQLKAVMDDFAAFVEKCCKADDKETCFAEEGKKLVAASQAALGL
Protocol: 5B. Chromatographic Determination of Human Serum Albumin (HSA) Assay
Chromatographic determination of Human Serum Albumin (HSA) values was performed on a UPLC-MS system using a ChiralPak® HSA column (p/n: 58469AST) from Sigma Aldrich. Mobile phase A consisted of 50 mM ammonium acetate buffer in water adjusted to pH=7.4, and mobile phase B was 2-propanol. The column compartment was kept at constant temperature of 30° C. Determination of retention time on the HSA column was performed by injecting […] of 0.5 mM of compound (in DMSO) using a linear gradient from 0%-30% B in 2.5 minutes, followed by a hold at 30% B for 2 minutes, and the final equilibration step from […] in 1.5 minutes, for a total run time of 6 minutes. Flow rate was kept constant throughout the gradient and set to 1.8 mL/min. Compound retention time on the HSA column was converted to % HSA values according to a previously published protocol (Valko, et. al, 2003) correlating column retention times to standard plasma protein binding (PPB) values obtained from dialysis experiments. HSA data for certain compounds are summarized below in Table 8 below.
Valko, K., Nunhuck, S., Bevan, C., Abraham, M. H., Reynolds, D. P. Fast Gradient HPLC Method to Determine Compounds Binding to Human Serum Albumin. Relationships with Octanol/Water and Immobilized Artificial Membrane Lipophilicity. J. of Pharm. Sci. 2003, 92, 2236-2248.

F508del-CFTR [2] = target: T1, F508del-CFTR (Homo sapiens (Human), UniProt P13569, DEL508-508); test: Ussing chamber chloride transport experiments in HBE cells; type: cell-based; details: HBE cells
T1 sequence (P13569 other isoform, or with tags, fused parts or gaps del F508-F508): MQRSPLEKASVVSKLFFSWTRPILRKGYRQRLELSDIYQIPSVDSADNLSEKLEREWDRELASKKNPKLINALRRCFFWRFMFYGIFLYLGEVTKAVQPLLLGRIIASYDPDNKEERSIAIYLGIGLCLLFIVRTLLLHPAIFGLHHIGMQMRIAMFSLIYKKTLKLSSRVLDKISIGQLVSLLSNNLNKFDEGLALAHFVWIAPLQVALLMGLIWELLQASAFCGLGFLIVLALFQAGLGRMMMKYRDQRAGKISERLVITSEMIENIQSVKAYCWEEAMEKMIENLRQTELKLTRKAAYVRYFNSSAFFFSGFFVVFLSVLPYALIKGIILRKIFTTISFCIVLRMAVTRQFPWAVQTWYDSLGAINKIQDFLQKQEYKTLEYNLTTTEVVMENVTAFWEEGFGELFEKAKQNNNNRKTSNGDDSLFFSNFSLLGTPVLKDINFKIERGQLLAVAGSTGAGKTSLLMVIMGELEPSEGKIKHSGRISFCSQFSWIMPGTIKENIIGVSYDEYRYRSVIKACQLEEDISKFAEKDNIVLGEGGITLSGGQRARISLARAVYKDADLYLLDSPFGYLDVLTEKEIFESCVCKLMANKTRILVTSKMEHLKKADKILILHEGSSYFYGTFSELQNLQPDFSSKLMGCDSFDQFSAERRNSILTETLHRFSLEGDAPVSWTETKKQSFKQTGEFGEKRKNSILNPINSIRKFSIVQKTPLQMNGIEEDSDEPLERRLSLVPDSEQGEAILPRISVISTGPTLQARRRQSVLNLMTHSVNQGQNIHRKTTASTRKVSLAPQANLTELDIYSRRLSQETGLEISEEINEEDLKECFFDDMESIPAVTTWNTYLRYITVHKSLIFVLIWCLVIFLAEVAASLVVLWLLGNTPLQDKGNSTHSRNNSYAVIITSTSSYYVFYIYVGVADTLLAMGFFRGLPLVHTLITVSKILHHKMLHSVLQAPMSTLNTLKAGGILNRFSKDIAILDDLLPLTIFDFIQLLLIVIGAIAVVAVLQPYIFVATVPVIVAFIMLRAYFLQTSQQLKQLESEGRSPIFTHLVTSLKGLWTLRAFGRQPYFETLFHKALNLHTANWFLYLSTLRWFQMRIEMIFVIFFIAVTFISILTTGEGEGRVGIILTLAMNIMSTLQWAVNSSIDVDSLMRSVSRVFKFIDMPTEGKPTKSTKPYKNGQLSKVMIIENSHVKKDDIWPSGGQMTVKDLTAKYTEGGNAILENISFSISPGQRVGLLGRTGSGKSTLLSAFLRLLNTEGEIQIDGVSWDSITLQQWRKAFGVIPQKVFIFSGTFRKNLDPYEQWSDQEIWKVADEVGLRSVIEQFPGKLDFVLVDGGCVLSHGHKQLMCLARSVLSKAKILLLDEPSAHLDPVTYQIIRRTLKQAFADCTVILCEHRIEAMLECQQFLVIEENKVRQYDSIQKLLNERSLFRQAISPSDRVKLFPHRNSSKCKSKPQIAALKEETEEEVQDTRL
Protocol: Ussing chamber experiments were performed on polarized airway epithelial cells expressing F508del to further characterize the F508del modulators identified in the optical assays. Non-CF and CF airway epithelia were isolated from bronchial tissue, cultured as previously described (Galietta, L. J. V., Lantero, S., Gazzolo, A., Sacco, O., Romano, L., Rossi, G. A., & Zegarra-Moran, O. (1998) In Vitro Cell. Dev. Biol. 34, 478-481), and plated onto Costar® Snapwell™ filters that were precoated with NIH3T3-conditioned media. After four days the apical media was removed and the cells were grown at an air liquid interface for >14 days prior to use. […] CF-HBE were isolated from patients homozygous for […] or compound heterozygous for F508del with an different disease causing mutation on the other allele.
HBE grown on Costar® Snapwell™ cell culture inserts were mounted in an Ussing chamber (Physiologic Instruments, Inc., San Diego, Calif.), and the transepithelial resistance and short-circuit current in the presence of a basolateral to apical Cl^− gradient (ISC) were measured using a voltage-clamp system (Department of Bioengineering, University of Iowa, Iowa). Briefly, HBE were examined under voltage-clamp recording conditions (Vhold=0 mV) at 37° C. The basolateral solution contained (in mM) 145 NaCl, 0.83 K2HPO4, 3.3 KH2PO4, 1.2 MgCl2, 1.2 CaCl2, 10 Glucose, 10 HEPES (pH adjusted to 7.35 with NaOH) and the apical solution contained (in mM) 145 NaGluconate, 1.2 MgCl2, 1.2 CaCl2, 10 glucose, 10 HEPES (pH adjusted to 7.35 with NaOH).
Typical protocol utilized a basolateral to apical membrane Cl^− concentration gradient. To set up this gradient, normal ringers was used on the basolateral membrane, whereas apical NaCl was replaced by equimolar sodium gluconate (titrated to pH 7.4 with NaOH) to give a large Cl^− concentration gradient across the epithelium. Modulators were added either to the basolateral side […] to assay or to the apical side during the assay. Forskolin (10 μM) was added to the apical side during the assay to stimulate CFTR-mediated Cl^− transport. […]

F508del-CFTR [3] = target: T1, F508del-CFTR; test: Membrane potential optical (fluorescent voltage sensing dye, FLIPR III) HTS assay for F508del-CFTR modulators; type: cell-based
Method in brief: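 NIH3T3 mouse fibroblasts stably expressing F508del-CFTR were seeded on matrigel-coated plates for 18–24 h at 37 °C. For correction assays they were cultured with or without compound for that period. Membrane potential was read on FLIPR III with voltage-sensing dyes, using a pH 7.4 NaCl/HEPES bath and a chloride-free gluconate substitute solution.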

Rat IV and PO PK studies = type: in vivo, male Sprague-Dawley rats; details: male, Sprague-Dawley, plasma; for bioavailability / AUC: 3 mg/kg, oral; for bioavailability: read-out: Rat po % F; for clearance: intravenous, 3.0 mg/kg, read-out: Rat iv CL
Protocol: 5C. Experimental Protocol for Rat IV and PO PK Studies
[…] […] Analyses of plasma and dose preparations were performed using LC/MS/MS.
Plasma concentration-time profiles of the tested compound in Sprague-Dawley rats at scheduled (nominal) sampling times were analyzed by noncompartmental pharmacokinetic methods using PK function within Watson LIMS software, Version 7.4.2 (Thermo Scientific Inc, Waltham, Mass.). AUC values were calculated using the linear trapezoidal rule.

human PXR = human PXR (Homo sapiens (Human), UniProt O75469); test: PXR assay (PXR mediated CYP3A4 induction, DPX-2 cell line); type: cell-based; details: DPX-2 cells, 48 hours, 0.1 to 60 μM
Chain of human PXR (O75469 whole entry): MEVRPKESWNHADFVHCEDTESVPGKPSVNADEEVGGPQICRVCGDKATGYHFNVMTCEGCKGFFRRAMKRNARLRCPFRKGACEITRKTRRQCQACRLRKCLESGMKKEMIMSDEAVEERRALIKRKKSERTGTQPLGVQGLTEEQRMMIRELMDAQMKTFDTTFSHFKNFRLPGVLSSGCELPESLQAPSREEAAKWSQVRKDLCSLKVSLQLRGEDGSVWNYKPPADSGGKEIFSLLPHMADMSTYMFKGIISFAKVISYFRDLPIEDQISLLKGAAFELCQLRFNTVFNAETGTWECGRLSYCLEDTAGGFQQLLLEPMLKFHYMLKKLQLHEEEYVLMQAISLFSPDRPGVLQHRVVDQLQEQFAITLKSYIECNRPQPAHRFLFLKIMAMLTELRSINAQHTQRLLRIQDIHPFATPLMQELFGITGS
Protocol: 5D. Experimental Protocol for PXR Assay
The propensity for PXR mediated CYP3A4 induction is assessed using the DPX-2 cell line in vitro. This cell line, which has been licensed from Puracyp Inc. was derived from HepG2 cells and has been stably transfected with genes encoding human PXR as well as a modified luciferase reporter linked to the CYP3A4 promoter region and related distal and proximal enhancers.
The assay is run in 384 well format and each test article is administered in 11 doses ranging from 0.1 to 60 μM. On day 1, DPX-2 cells which have previously been expanded in-house and cryopreserved are thawed and seeded in tissue culture plates. The following day, media is changed and cells are cultured in media containing test article, vehicle control or the positive control compound, the clinically validated CYP3A4 inducer rifampicin. Cells are cultured in the presence of test article for 48 hours and then cell viability is assessed using fluorescence based assay (Cell Titer-Fluor, Promega) with an EnVision Plate Reader (PerkinElmer). Subsequently, CYP3A4 transactivation, which is proportional to luciferase activity, is measured by reading luminescense using the Promega One-Glo reagent system using the same plate reader.
Data processing within the Genedata software package allows reporting of max fold induction compared to vehicle control, an EC50 value for CYP3A4 inducers and an 11 point-dose response curve.

[4] = F508del NIH 3T3 cells, assay 5A-A1, read-out: CFTRdF508 EC50
[5] = Table 9, read-out: CFTR dF508 EC50

Compound | HSA binding [1] [%] | potentiation of F508del-CFTR delivered to the cell surface by Compound I alone or in combination with Compound II (F508del-CFTR [2]) | EC50 (F508del-CFTR [3]; [4]) [µM] | EC50 (F508del-CFTR [3]; [5]) [µM] | bioavailability (Rat IV and PO PK studies) [%] | clearance (Rat IV and PO PK studies) [mL/min/kg] | AUC (Rat IV and PO PK studies) [ng·h/mL] | PXR Max Induction (% of rifampicin) (human PXR)
C[C@@H]1CN(c2nc(-n3ccc(OCC4(C(F)(F)F)CC4)n3)ccc2C(=O)NS(=O)(=O)c2ccccc2)C(C)(C)C1 [drawing 337] | 99.1 | – | – | – | – | – | – | –
C[C@@H]1CN(c2nc(-n3ccc(OCC4(C(F)(F)F)CC4)n3)ccc2C(=O)NS(=N)(=O)c2ccccc2)C(C)(C)C1 (mixture of isomers) | 98.1 | – | – | – | – | – | – | –
C[C@@H]1CN(c2nc(-n3ccc(OCC4(C(F)(F)F)CC4)n3)ccc2C(=O)NS(=N)(=O)c2ccccc2)C(C)(C)C1 (single isomer, unassigned) [drawing 339] | 97.9 | – | – | – | – | – | – | –
CC(C)(C)c1cc(C(C)(C)C)c(NC(=O)c2c[nH]c3ccccc3c2=O)cc1O [Compound III, N-(5-hydroxy-2,4-di-tert-butyl-phenyl)-4-oxo-1H-quinoline-3-carboxamide, reference compound] | – | potentiated | – | – | – | – | – | –
C[C@@H]1CN(c2nc(-n3ccc(OCC4(C(F)(F)F)CC4)n3)ccc2C(=O)NS(=O)(=O)c2ccccc2)C(C)(C)C1 [Compound 14, N-(Benzenesulfonyl)-6-[3-[[1-(trifluoromethyl)cyclopropyl]methoxy]pyrazol-1-yl]-2-[(4S)-2,2,4-trimethylpyrrolidin-1-yl]pyridine-3-carboxamide] | – | – | < 0.1 | 0.04 | 58 | 2 | 14700 | 19 % of rifampicin
C[C@@H]1CN(c2nc(-n3ccc(OCC4(C(F)(F)F)CC4)n3)ccc2C(=O)NS(=O)(=O)c2cccc(F)c2)C(C)(C)C1 [Comp. 51, N-(3-Fluorophenyl)sulfonyl-6-[3-[[1-(trifluoromethyl)cyclopropyl]methoxy]pyrazol-1-yl]-2-[(4S)-2,2,4-trimethylpyrrolidin-1-yl]pyridine-3-carboxamide] | – | – | < 0.1 | 0.05 | 100 | 5.2 | 10500 | 17 % of rifampicin
C[C@@H]1CN(c2nc(-n3ccc(OCC4C(C)(C)C4(C)C)n3)ccc2C(=O)NS(=O)(=O)c2ccccc2)C(C)(C)C1 [Comp. 30, N-(Benzenesulfonyl)-6-[3-[(2,2,3,3-tetramethylcyclopropyl)methoxy]pyrazol-1-yl]-2-[(4S)-2,2,4-trimethylpyrrolidin-1-yl]pyridine-3-carboxamide] | – | – | < 0.1 | 0.09 | 26 | 6.1 | 2300 | 0 % of rifampicin
C[C@@H]1CN(c2nc(-n3ccc(OCC4C5(CC5)C45CC5)n3)ccc2C(=O)NS(=O)(=O)c2ccccc2)C(C)(C)C1 [Compound 64, N-(Benzenesulfonyl)-6-[3-(dispiro[2.0.2.1]heptan-7-ylmethoxy)pyrazol-1-yl]-2-[(4S)-2,2,4-trimethylpyrrolidin-1-yl]pyridine-3-carboxamide] | – | – | < 0.1 | 0.05 | 79 | 3.4 | 9000 | 4 % of rifampicin
Cc1ccc(S(=O)(=O)NC(=O)c2ccc(-n3ccc(OCC4(C(F)(F)F)CC4)n3)nc2N2C[C@@H](C)CC2(C)C)cc1 [Compound 24, N-(p-Tolylsulfonyl)-6-[3-[[1-(trifluoromethyl)cyclopropyl]methoxy]pyrazol-1-yl]-2-[(4S)-2,2,4-trimethylpyrrolidin-1-yl]pyridine-3-carboxamide] | – | – | < 0.1 | 0.07 | 98 | 2.6 | 20000 | 9 % of rifampicin
C[C@@H]1CN(c2cc(-n3ccc(OCCC4(C(F)(F)F)CC4)n3)ncc2C(=O)NS(=O)(=O)c2ccccc2)C(C)(C)C1 [Comp. 44, (S)—N-(phenylsulfonyl)-6-(3-(2-(1-(trifluoromethyl)cyclopropyl)ethoxy)-1H-pyrazol-1-yl)-4-(2,2,4-trimethylpyrrolidin-1-yl)nicotinamide] | – | – | 0.1 to 1 | 0.62 | 81 | 5 | 8500 | 18 % of rifampicin
C[C@@H]1CN(c2nc(-n3ccc(OCC4(C(F)(F)F)CC4)n3)ccc2C(=O)NS(=N)(=O)c2ccccc2)C(C)(C)C1 (single isomer, unassigned) [drawing 340] | 98.4 | – | – | – | – | – | – | –
